Test results: article PMC9865396, “The Effect of the Particle Size Reduction on the Biorelevant Solubility and Dissolution of Poorly Soluble Drugs with Different Acid-Base Character” (Pharmaceutics, 2023)
Where a name gives a salt, the structure may show the parent alone.

Assays:
[1] = particle size distribution by laser diffractometry (Mastersizer 2000); assay type: physicochemical
Experimental: For Laser Diffractometry, 0.1 mL of milled suspensions were dispersed in 100 mL of demineralized water at a mixing speed of 1500 rpm with Mastersizer Hydro 2000 SM small volume dispersion unit. The particle size of the samples was measured at 25 ± 1 °C using a Mastersizer 2000 (Malvern Instruments Ltd., Malvern, UK). Laser diffraction measures the angular distribution of light scattered by the diluted sample and detects particles from 0.1 to 3000 μm. General purpose measurement with enhanced sensitivity mode was utilized, which was also useful for sample characterizations containing irregularly shaped particles. Every sample was measured three times individually, and the mean values were reported to track the changing of the particle size and span values (width of particle size distributions).

[2] = pKa and ionization state (species distribution) at the pH of the media; assay type: physicochemical
[3] = ampholyte; cited from earlier work
[4] = equilibrium solubility by the saturation shake-flask (SSF) method in FaSSIF/FeSSIF blank and full media; settings: blank buffers, 37 °C
Experimental: The equilibrium solubility of the samples was determined by the SSF method. The concentrations for the blank buffers were available at the manufacturer. FaSSIF full and FeSSIF full buffers were prepared from instant SIF powder added to the blank buffers and could be used for 48 h. For FaSSIF, a full 0.224 g of SIF powder was dissolved in 100 mL of blank phosphate buffer (pH = 6.5). After 2 h, a slightly opalesque solution was formed and it meant that it was ready for the measurement. For FeSSIF, a full 1.12 g of SIF powder was dissolved in 100 mL of blank acetate buffer (pH = 5.0) and was ready to use. The samples were added in excess to the aqueous buffer solutions to produce a suspension. To measure the original samples and the micronized forms in the presence of the excipients, the same 1 to 1 mass ratio was used as in the case of nanonized samples: a physical mixture was prepared from the API and the PVA or PVPK-25.
The prepared suspensions were vigorously stirred for 6 h at a controlled 37.0 ± 0.1 °C temperature followed by a sedimentation period of 18 h. […] The concentration of the saturated solutions was determined by UV spectroscopy using a Jasco V-550 UV/VIS spectrophotometer. The aliquots taken out from solubility experiments were diluted if necessary with the buffer used for the given solubility measurement, and the absorbance was measured at the λmax. […]

[5] = original and micronized compounds before solubility measurement, upper size limit for 10% of particles
[6] = original and micronized compounds before solubility measurement, upper size limit for 50% of particles
[7] = original and micronized compounds before solubility measurement, upper size limit for 90% of particles
[8] = solid phase at end of solubility measurement, pH = 5.0
[9] = solid phase at end of solubility measurement, pH = 6.5
[10] = pH = 5.0, calculated from protonation microconstants

d = 0.1 [1, 5] [µm] | d = 0.5 [1, 6] [µm] | d = 0.9 [1, 7] [µm] | d = 0.1 [1, 8] [µm] | d = 0.5 [1, 8] [µm] | d = 0.9 [1, 8] [µm] | d = 0.1 [1, 9] [µm] | d = 0.5 [1, 9] [µm] | d = 0.9 [1, 9] [µm] | H2A (non-ionized form) ([2]; pH = 5.0) [%] | HA− (monoanionic form) ([2]; pH = 5.0) [%] | anionic form [2, 10] [%] | neutral form [2, 10] [%] | zwitterionic form [2, 10] [%] | anionic form ([2]; pH = 6.5, calculated from protonation microconstants) [%] | solubility in pH = 5.0 medium compared with pH = 6.5 medium [4] | Compound | pKa1 [3] | pKa2 [3] | molecules protonated ([2]; pH = 5.0) [%] | molecule in deprotonated state ([2]; pH = 6.5)
7.36 | 62.46 | 294.13 | 16.24 | 51.23 | 110.56 | 4.72 | 14.63 | 35.04 | 3.3 | 96.7 |  |  |  |  |  | NS(=O)(=O)c1cc(C(=O)O)c(NCc2ccco2)cc1Cl [FUR original, furosemide] |  |  |  | 
71.45 | 183.25 | 579.83 | 56.21 | 151.25 | 488.95 | 19.07 | 58.55 | 128.24 |  |  | 78.2 | 1.2 | 20.6 | 99.1 | approximately ten times lower | O=C(O)c1cccnc1Nc1cccc(C(F)(F)F)c1 [NIF original, Niflumic acid] | 2.26 | 4.44 |  | 

Compound | d = 0.1 [1, 5] [µm] | d = 0.5 [1, 6] [µm] | d = 0.9 [1, 7] [µm] | d = 0.1 [1, 8] [µm] | d = 0.5 [1, 8] [µm] | d = 0.9 [1, 8] [µm] | d = 0.1 [1, 9] [µm] | d = 0.5 [1, 9] [µm] | d = 0.9 [1, 9] [µm] | H2A (non-ionized form) ([2]; pH = 5.0) [%] | HA− (monoanionic form) ([2]; pH = 5.0) [%] | anionic form [2, 10] [%] | neutral form [2, 10] [%] | zwitterionic form [2, 10] [%] | anionic form ([2]; pH = 6.5, calculated from protonation microconstants) [%] | solubility in pH = 5.0 medium compared with pH = 6.5 medium [4] | pKa1 [3] | pKa2 [3] | molecules protonated ([2]; pH = 5.0) [%] | molecule in deprotonated state ([2]; pH = 6.5)
COc1ccc(Cc2nccc3cc(OC)c(OC)cc23)cc1OC [PAP original, papaverine hydrochloride] | 153.97 | 488.62 | 887.93 | 4.60 | 49.42 | 189.96 | 7.96 | 33.39 | 98.40 |  |  |  |  |  |  |  |  |  | 95.8 | approximately 50%
